Reference: PubChem BioAssay (NCI)
Values joined by “and” are separate entries in the source; they are usually repeats but may differ in a detail not shown here. Identical values can stand only once.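 Following 48 hours of exposure in 96-well plates, responses at five concentrations were used to interpolate endpoints linearly. Abbreviation: GI50, concentration required for 50% inhibition of growth. TGI marks complete inhibition of growth.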 *1 amine or outer side, *2 acyl side, *3 side chain or, on linkers, in order; H or OH if unused. Where a SMILES comes first, the peptide text is derived from it. Bridges are numbered along the chain shown (N, C = ends). Roman numbers before positions name the chains, in order. [ ]: non-standard residue; d: D form. Actinocin(9to1) = Cc1c2oc3c(C)ccc(C(=O)[*:1])c3nc-2c(C(=O)[*:2])c(N)c1=O; NMeT = CN[CH](C(=O)O)[CH](C)O; Sar = CNCC(=O)O

Assays:
Assay in all cases: NCI anticancer screen, dose series, 48 h
HS 578T breast = tested on: HS 578T breast
M14 melanoma = tested on: M14 melanoma
OVCAR-8 ovarian = tested on: OVCAR-8 ovarian
SF-539 CNS = tested on: SF-539 CNS
SK-MEL-28 melanoma = tested on: SK-MEL-28 melanoma
SK-OV-3 ovarian = tested on: SK-OV-3 ovarian
SNB-19 CNS = tested on: SNB-19 CNS
SNB-75 CNS = tested on: SNB-75 CNS
UACC-62 melanoma = tested on: UACC-62 melanoma
UO-31 renal = tested on: UO-31 renal

## CC(=Nc1ccccc1)C1=C(O)C(Cc2ccc(O)cc2)NC1=O (stereo not drawn)
HS 578T breast
  GI50: 0.0771 µM
M14 melanoma
  GI50: 0.0469 µM
  TGI: 0.269 µM
OVCAR-8 ovarian
  GI50: 0.255 µM
  TGI: > 100 µM
SF-539 CNS
  GI50: 0.129 µM
  TGI: 0.703 µM
SK-MEL-28 melanoma
  GI50: 0.0594 µM
  TGI: > 100 µM
SK-OV-3 ovarian
  GI50: 0.162 µM
  TGI: > 50 µM
SNB-19 CNS
  GI50: 0.23 µM
  TGI: > 100 µM
SNB-75 CNS
  GI50: 0.07 µM
  TGI: 0.566 µM
UACC-62 melanoma
  GI50: 0.058 µM
  TGI: > 100 µM
UO-31 renal
  GI50: 0.321 µM
  TGI: > 100 µM

## O=c1ccs[nH]1
HS 578T breast
  TGI: 49.7 µM
M14 melanoma
  TGI: 26.2 µM
OVCAR-8 ovarian
  TGI: 32.9 µM
SF-539 CNS
  TGI: 18.3 µM
SK-MEL-28 melanoma
  TGI: 67.5 µM
SK-OV-3 ovarian
  TGI: 72.5 µM
SNB-19 CNS
  TGI: > 89.1 µM
SNB-75 CNS
  TGI: 36.5 µM
UACC-62 melanoma
  TGI: 39.8 µM
UO-31 renal
  TGI: 23 µM

## NC[C@H]1Nc2ccccc2[C@@H](O)C1O (stereo partly drawn)
HS 578T breast
  TGI: > 100 µM
M14 melanoma
  TGI: > 100 µM
OVCAR-8 ovarian
  TGI: > 100 µM
SF-539 CNS
  TGI: > 100 µM
SK-MEL-28 melanoma
  TGI: > 100 µM
SK-OV-3 ovarian
  TGI: > 100 µM
SNB-19 CNS
  TGI: > 100 µM
SNB-75 CNS
  TGI: > 100 µM
UACC-62 melanoma
  TGI: > 100 µM
UO-31 renal
  TGI: > 100 µM

## COc1ccc(-c2cc(-c3ccc(Cl)cc3)nc(SCCCC(=O)NO)n2)cc1
HS 578T breast
  GI50: 2.08 µM
  TGI: 11.2 µM
M14 melanoma
  GI50: 0.786 µM
  TGI: 3.12 µM
OVCAR-8 ovarian
  GI50: 0.427 µM
  TGI: > 100 µM
SF-539 CNS
  GI50: 1.36 µM
  TGI: 3.78 µM
SK-MEL-28 melanoma
  GI50: 1.69 µM
  TGI: 5.47 µM
SK-OV-3 ovarian
  GI50: 1.67 µM
  TGI: 5.68 µM
SNB-19 CNS
  GI50: 2.18 µM
  TGI: > 27.1 µM
SNB-75 CNS
  GI50: 1.22 µM
  TGI: 5.61 µM
UACC-62 melanoma
  GI50: 0.853 µM
  TGI: 2.22 µM
UO-31 renal
  GI50: 0.237 µM
  TGI: 1 µM

## O=C1NC(=O)C(c2ccccc2Cl)=C1Nc1cc(Cl)c(O)c(Cl)c1
HS 578T breast
  GI50: 10.9 µM
  TGI: > 25 µM
M14 melanoma
  GI50: > 19.5 µM
  TGI: > 25 µM
OVCAR-8 ovarian
  GI50: 17.6 µM
  TGI: > 25 µM
SF-539 CNS
  GI50: 13.9 µM
  TGI: > 25 µM
SK-MEL-28 melanoma
  GI50: > 14.6 µM
  TGI: > 25 µM
SK-OV-3 ovarian
  GI50: 16.3 µM
  TGI: > 25 µM
SNB-19 CNS
  GI50: > 25 µM
  TGI: > 25 µM
SNB-75 CNS
  GI50: > 13 µM
  TGI: > 25 µM
UACC-62 melanoma
  GI50: 11.4 µM
  TGI: > 25 µM
UO-31 renal
  GI50: > 23.4 µM
  TGI: > 25 µM

## O=C1CC(=O)N(C(=O)c2nn(-c3ccc(Cl)cc3)cc2O)N1
HS 578T breast
  GI50: 0.136 µM
  TGI: > 100 µM
M14 melanoma
  GI50: 0.651 µM
  TGI: 27.8 µM
OVCAR-8 ovarian
  GI50: 0.636 µM
  TGI: > 100 µM
SF-539 CNS
  GI50: 0.371 µM
  TGI: > 63 µM
SK-MEL-28 melanoma
  GI50: 2.82 µM
  TGI: > 100 µM
SK-OV-3 ovarian
  GI50: 1.85 µM
  TGI: > 100 µM
SNB-19 CNS
  GI50: 0.5 µM
  TGI: > 100 µM
SNB-75 CNS
  GI50: 0.242 µM
  TGI: > 100 µM
UACC-62 melanoma
  GI50: 0.381 µM
  TGI: 9.41 µM
UO-31 renal
  GI50: 0.529 µM
  TGI: > 100 µM

## COc1cc(-c2ccc(-c3ccc(C(=N)N)nc3)s2)cc(OC)c1OC
HS 578T breast
  GI50: 2.59 µM
  TGI: 8.52 µM
M14 melanoma
  GI50: 1.66 µM
  TGI: 3.33 µM
OVCAR-8 ovarian
  GI50: 2.3 µM
  TGI: 5.23 µM
SF-539 CNS
  GI50: 1.61 µM
  TGI: 3.01 µM
SK-MEL-28 melanoma
  GI50: 1.62 µM
  TGI: 3.18 µM
SK-OV-3 ovarian
  GI50: 13.1 µM
  TGI: 26 µM
SNB-19 CNS
  GI50: 4.73 µM
  TGI: 16.3 µM
SNB-75 CNS
  GI50: 1.5 µM
  TGI: 5.16 µM
UACC-62 melanoma
  GI50: 1.73 µM
  TGI: 3.3 µM
UO-31 renal
  GI50: 1.88 µM
  TGI: 3.4 µM

## CS(=O)(=O)CCNCc1ccc(-c2ccc3ncnc(Nc4ccc(OCc5ccccc5)c(Br)c4)c3c2)o1
HS 578T breast
  GI50: 5.08 µM
  TGI: 15.9 µM
M14 melanoma
  GI50: 4.98 µM
  TGI: 10.3 µM
OVCAR-8 ovarian
  GI50: 9.62 µM
  TGI: > 25 µM
SF-539 CNS
  GI50: 5.41 µM
  TGI: 13.2 µM
SK-MEL-28 melanoma
  GI50: 4.5 µM
  TGI: 9.08 µM
SK-OV-3 ovarian
  GI50: 0.115 µM
  TGI: > 25 µM
SNB-19 CNS
  GI50: > 20.8 µM
  TGI: > 25 µM
SNB-75 CNS
  GI50: 10.1 µM
  TGI: > 25 µM
UACC-62 melanoma
  GI50: 5.03 µM
  TGI: 9.75 µM
UO-31 renal
  GI50: 3.64 µM
  TGI: 11.5 µM

## Cc1c2oc3c(C)ccc(C(=O)NC4C(=O)NC(C(C)C)C(=O)N5CCCC5C(=O)N(C)CC(=O)N(C)C(C(C)O)C(=O)OC4C)c3nc-2c(C(=O)NC2C(=O)NC(C(C)C)C(=O)N3CCCC3C(=O)N(C)CC(=O)N(C)C(C(C)O)C(=O)OC2C)c(N)c1=O (stereo not drawn) (I: TVP[Sar][NMeT] / II: TVP[Sar][NMeT]; ester I:1-I:C, II:1-II:C; linker I:N-II:N via Actinocin(9to1); configuration not given here)
HS 578T breast
  TGI: > 27.1 µM
M14 melanoma
  GI50: 7.14 µM and > 1 µM
  TGI: > 56.9 µM
OVCAR-8 ovarian
  TGI: > 43.8 µM
SF-539 CNS
  TGI: 18 µM and > 1 µM
SK-MEL-28 melanoma
  TGI: 4.96 µM and > 1 µM
SK-OV-3 ovarian
  GI50: 5.75 µM and > 1 µM
  TGI: > 100 µM
SNB-19 CNS
  GI50: 2.3 µM and 0.572 µM
  TGI: > 100 µM
SNB-75 CNS
  TGI: 3.43 µM and 0.839 µM
UACC-62 melanoma
  TGI: 1.54 µM
UO-31 renal
  GI50: 2.99 µM and > 1 µM
  TGI: 24.8 µM and > 1 µM

## O=C(O)CCCSc1ccccc1
HS 578T breast
  TGI: > 100 µM
M14 melanoma
  TGI: > 100 µM
OVCAR-8 ovarian
  TGI: > 100 µM
SF-539 CNS
  TGI: > 100 µM
SK-MEL-28 melanoma
  TGI: > 100 µM
SK-OV-3 ovarian
  TGI: > 100 µM
SNB-19 CNS
  TGI: > 100 µM
SNB-75 CNS
  TGI: > 100 µM
UACC-62 melanoma
  TGI: > 100 µM
UO-31 renal
  TGI: > 100 µM

## CNC/C(Cl)=N/S(=O)(=O)c1ccc(C)cc1
HS 578T breast
  TGI: > 100 µM
M14 melanoma
  TGI: 39.7 µM
OVCAR-8 ovarian
  TGI: > 100 µM
SF-539 CNS
  TGI: 39.7 µM
SK-MEL-28 melanoma
  TGI: > 100 µM
SK-OV-3 ovarian
  TGI: 56.6 µM
SNB-19 CNS
  TGI: 68.2 µM
SNB-75 CNS
  TGI: 18.4 µM
UACC-62 melanoma
  TGI: 21.9 µM
UO-31 renal
  TGI: 36.6 µM

## N#Cc1ccc2c(c1)C(=O)c1c-2n(CCCCl)c(=O)c2cc([N+](=O)[O-])ccc12
HS 578T breast
  GI50: 41 µM
  TGI: > 100 µM
M14 melanoma
  GI50: 4.64 µM
  TGI: > 100 µM
OVCAR-8 ovarian
  GI50: 20.6 µM
  TGI: > 100 µM
SF-539 CNS
  GI50: 2.62 µM
  TGI: 10.5 µM
SK-MEL-28 melanoma
  GI50: 41.1 µM
  TGI: > 100 µM
SK-OV-3 ovarian
  GI50: 5.29 µM
  TGI: 24.7 µM
SNB-19 CNS
  GI50: 3.39 µM
  TGI: > 100 µM
SNB-75 CNS
  GI50: 3.51 µM
  TGI: 11.5 µM
UACC-62 melanoma
  GI50: 1.13 µM
  TGI: 9.96 µM
UO-31 renal
  GI50: 2.61 µM
  TGI: > 100 µM

## O=C(O)c1ccc(Oc2nccc(-c3c(-c4ccc(F)cc4)ncn3C3CCNCC3)n2)cc1
HS 578T breast
  GI50: > 25 µM
  TGI: > 25 µM
M14 melanoma
  GI50: > 25 µM
  TGI: > 25 µM
OVCAR-8 ovarian
  GI50: > 25 µM
  TGI: > 25 µM
SF-539 CNS
  GI50: > 25 µM
  TGI: > 25 µM
SK-MEL-28 melanoma
  GI50: > 25 µM
  TGI: > 25 µM
SK-OV-3 ovarian
  GI50: > 25 µM
  TGI: > 25 µM
SNB-19 CNS
  GI50: > 25 µM
  TGI: > 25 µM
SNB-75 CNS
  GI50: > 25 µM
  TGI: > 25 µM
UACC-62 melanoma
  GI50: > 25 µM
  TGI: > 25 µM
UO-31 renal
  GI50: > 25 µM
  TGI: > 25 µM
